The source of these data is publication PMC9079959, “Substituted spirooxindole derivatives as potent anticancer agents through inhibition of phosphodiesterase 1” (RSC Advances, 2018).

Broadly, the IC50 is the concentration that gives 50% inhibition. As a reminder, the melting point is the temperature of the solid-liquid transition.

Series [1] concerns HCT-116 cells. The series is described as follows: MTT cytotoxicity assay, colorectal cancer cell line HCT-116. The series is classed as cell-based. The following applies: for IC50: Homo sapiens, HCT-116, MTT, 48 h; for SI (selectivity index): IC50 normal (VERO-B) / IC50 cancer (HCT-116). How it is done: (§1) The cytotoxic activity of the compounds was tested against different mammalian cancer cells, prostate carcinoma cells (PC-3), hepatocellular carcinoma (HepG2) and colon cancer cells (HCT-116). African green monkey kidney cells (Vero-B) were used as normal cells to study the selectivity towards the cancer cells. The cell lines were obtained from the American Type Culture Collection (ATCC). The cells were cultivated at 37 °C and 10% CO2 in DMEM (Lonza, Germany) medium supplemented with 10% fetal bovine serum (Lonza, Germany), 100 IU ml^−1 penicillin and 100 μg ml^−1 streptomycin (Lonza, Germany). […] The spirooxindole derivatives were solubilized in DMSO and stored at −20 °C. The viability of the cells was quantified using 3-(4,5-dimethylthiazol-2-yl)-2,5-diphenyl tetrazolium bromide (MTT), which measures the activity of mitochondrial succinate dehydrogenase in viable cells.[45,46]
(§2) The cells were seeded in 96-well plates at a concentration of 5 × 10^4 cells per ml (100 μl per well). […] DMSO was used as a negative control (0.1%). The cells were incubated for 48 h. After that, 15 μl of MTT (5 mg ml^−1 in PBS) was added to each well and incubated for another 4 h. The formazan crystals were solubilized by 100 μl of acidified SDS solution (10% SDS/0.01 N HCl in PBS). The absorbance was measured after 14 h of incubation at 37 °C and under 5% CO2 at 570 nm by using a BioTek microplate reader. Each experiment was repeated 3 times and a standard deviation was calculated (SD±). […] The growth of the cells was monitored and the images were acquired by Gx microscopes (GXMGXD202 Inverted Microscope) at 10× magnification.

Series [2] relates to HepG2 cells. Nature of the series: MTT cytotoxicity assay, hepatocellular carcinoma HepG2. It is filed as cell-based. The following applies: for IC50: Homo sapiens, HepG2, MTT, 48 h; for SI (selectivity index): IC50 normal (VERO-B) / IC50 cancer (HepG2). How it is done:
as §1, §2
On the technique in general: Tetrazolium assays rely on reduction of a dye to a coloured formazan, in cell work by metabolically active cells.

Series [3] has as its system PC-3 cells. Nature of the series: MTT cytotoxicity assay, prostate cancer cell line PC-3. The following applies: for IC50: Homo sapiens, PC-3, MTT, 48 h; for SI (selectivity index): IC50 normal (VERO-B) / IC50 cancer (PC-3). It is filed as cell-based. How it is done:
as §1, §2

Series [4] has as its system Vero-B cells. Nature of the series: MTT cytotoxicity assay, normal cells Vero-B. It is filed as cell-based, African green monkey. The following applies: Chlorocebus sabaeus, Vero B, 48 h. How it is done:
as §1, §2

Series [5] concerns phosphodiesterase 1. The series is classed as biochemical, snake.
Experimental: A phosphodiesterase I inhibition assay was performed using snake venom according to a previously reported method with minute variations. Briefly, 33 mM Tris–HCl buffer of pH 8.8 (97 μl), 30 mM magnesium acetate with an enzyme concentration of 0.000742 U well^−1 and 0.33 mM bis-(p-nitrophenyl) phosphate (Sigma N-3002, 60 μl) as substrate were taken. […] After a pre-incubation period of 30 min, the enzyme with the test samples was observed spectrophotometrically for enzyme activity on a microtiter plate reader at 37 °C by following the rate of change in OD min^−1 at 410 nm of the p-nitrophenol released from p-nitrophenyl phosphate. All assays were processed in triplicate.[47]
Setting [6] is: ± SD of 3 experiments, read-out: HCT-116 (IC50).
[7] abbreviates: read-out: HCT-116 (IC50, μg ml^−1).
The mark [8] stands for this setting: ± SD of 3 experiments, read-out: HepG2 (IC50).
The mark [9] stands for this setting: read-out: HepG2 (IC50, μg ml^−1).
[10] abbreviates: ± SD of 3 experiments, read-out: PC-3 (IC50).
[11] abbreviates: read-out: PC-3 (IC50, μg ml^−1).

Values joined by “and” are separate entries in the source; they are usually repeats but may differ in a detail not shown here. Identical values can stand only once. Like-named read-outs stand apart in the source and are kept apart here.

Regarding `O=C(c1c[nH]c2ccccc12)[C@@H]1C(c2ccc(Cl)cc2Cl)[C@@H]2CCCN2[C@@]12C(=O)Nc1ccccc12` (stereo partly drawn) [4d, (2′R,3S,7a′S)-1′-(2,4-Dichlorophenyl)-2′-(1H-indole-3-carbonyl)-1′,2′,5′,6′,7′,7a′-hexahydrospiro[indoline-3,3′-pyrrolizin]-2-one], the melting point was 149 to 151 °C. Further, the half-maximal inhibitory concentration (IC50) in series [1] (setting [6]) is 9 ± 0.6 µM. Further, in series [1] (setting [7]), the IC50 came out at 4.6 µg/mL. The “SI (selectivity index)” value in series [1] was > 1 and 1. The half-inhibitory concentration (IC50) in series [2] (setting [8]) was 2 ± 0.1 µM. For the same compound, in series [2] (setting [9]), the 50% inhibitory concentration (IC50) was found to be 1 µg/mL. Besides, the half-maximal inhibitory concentration (IC50) in series [3] (setting [10]) was found to be 2 ± 0.125 µM. Moreover, in series [3] (setting [11]), the IC50 is 1 µg/mL. Moreover, inhibition in series [4] was half-maximal at 9 µM (IC50). Moreover, the “inhibitory activity against phosphodiesterase enzyme” value in series [5] (at 2 μM) is on record as 74.2%.
For `O=C(c1c[nH]c2ccccc12)[C@@H]1C(c2ccc(F)cc2)[C@@H]2CCCN2[C@@]12C(=O)Nc1ccccc12` (stereo partly drawn) [4g, (2′R,3S,7a′S)-1′-(4-Fluorophenyl)-2′-(1H-indole-3-carbonyl)-1′,2′,5′,6′,7′,7a′-hexahydrospiro[indoline-3,3′-pyrrolizin]-2-one], the melting point fell in the range of 144 to 146 °C. Moreover, in series [1] (setting [6]), the half-maximal inhibitory concentration (IC50) turned out to be 16 ± 1 µM. Also, in series [1] (setting [7]), the concentration for half-maximal inhibition (IC50) was found to be 7.4 µg/mL. In addition, the “SI (selectivity index)” value in series [1] is on record as 2.5. Further, the half-inhibitory concentration (IC50) in series [2] (setting [8]) turned out to be 20 ± 2 µM. Besides, the IC50 in series [2] (setting [9]) turned out to be 9.3 µg/mL. Also, in series [2], the “SI (selectivity index)” value is given as 2. For the same compound, the concentration for half-maximal inhibition (IC50) in series [3] (setting [10]) was 16.3 ± 30 µM. Also, in series [3] (setting [11]), the IC50 came to 7.6 µg/mL. In series [3], the “SI (selectivity index)” value was 2.5. Besides, 40 µM corresponded to half-maximal inhibition in series [4] (IC50).
On to `O=C(c1c[nH]c2ccccc12)[C@@H]1C(c2ccco2)[C@@H]2CCCN2[C@@]12C(=O)Nc1ccccc12` (stereo partly drawn) [4m, (2′R,3S,7a′S)-1′-(Furan-2-yl)-2′-(1H-indole-3-carbonyl)-1′,2′,5′,6′,7′,7a′-hexahydrospiro[indoline-3,3′-pyrrolizin]-2-one], for which the melting point fell in the range of 172 to 174 °C. The concentration for half-maximal inhibition (IC50) in series [1] (setting [6]) was determined as 29 ± 2 µM. Also, the IC50 in series [1] (setting [7]) came to 12.7 µg/mL. In addition, in series [1], the “SI (selectivity index)” value is given as 1.7. Besides, the half-inhibitory concentration (IC50) in series [2] (setting [8]) was 40 ± 5 µM. The IC50 in series [2] (setting [9]) is 17.5 µg/mL. The “SI (selectivity index)” value in series [2] is 1.3. For the same compound, the half-inhibitory concentration (IC50) in series [3] (setting [10]) amounted to 26 ± 1.7 µM. For the same compound, the IC50 in series [3] (setting [11]) was 11.3 µg/mL. Also, in series [3], the “SI (selectivity index)” value came out at 1.9. Further, inhibition in series [4] was half-maximal at 50 µM (IC50).
Compound `O=C(c1c[nH]c2ccccc12)[C@@H]1C(c2cccc(F)c2)[C@@H]2CCCN2[C@@]12C(=O)Nc1ccccc12` (stereo partly drawn) [4h, (2′R,3S,7a′S)-1′-(3-Fluorophenyl)-2′-(1H-indole-3-carbonyl)-1′,2′,5′,6′,7′,7a′-hexahydrospiro[indoline-3,3′-pyrrolizin]-2-one] gave a melting point of 149 to 151 °C. For the same compound, in series [1] (setting [6]), the 50% inhibitory concentration (IC50) stood at 15 ± 1.4 µM. Further, the concentration for half-maximal inhibition (IC50) in series [1] (setting [7]) amounted to 7 µg/mL. The “SI (selectivity index)” value in series [1] was found to be 1.2. Also, the IC50 in series [2] (setting [8]) was 14 ± 0.22 µM. In addition, the IC50 in series [2] (setting [9]) was found to be 6.5 µg/mL. Further, in series [2], the “SI (selectivity index)” value is reported as 1.3. The IC50 in series [3] (setting [10]) turned out to be 11.5 ± 11.5 µM. Besides, the IC50 in series [3] (setting [11]) was found to be 5.4 µg/mL. Besides, in series [3], the “SI (selectivity index)” value came out at 1.6. This compound also showed an IC50 in series [4] of 18 µM.
Turning to `O=C(O)CN(CCN(CC(=O)O)CC(=O)O)CC(=O)O` [EDTA, reference compound], the 50% inhibitory concentration (IC50) in series [5] (positive control) was found to be 274 ± 0.007 µM.
